# From ChEMBL document CHEMBL1201862, “PubChem BioAssay data set” (2004)
# Activity calls are given as the source filed them.
# What was measured:
# [1] = target: T1, RNA-binding protein pos-1 (Caenorhabditis elegans, UniProt G5EF15); assay: inhibitors of POS-1/mex-3 RNA binding, dose response, biochemical, fluorescence polarization (AID 1964);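 further: purified POS-1 fused to maltose binding protein made in E. coli; potency of compounds blocking POS-1 binding to fluorescent RNA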
# T1 sequence (G5EF15 whole entry): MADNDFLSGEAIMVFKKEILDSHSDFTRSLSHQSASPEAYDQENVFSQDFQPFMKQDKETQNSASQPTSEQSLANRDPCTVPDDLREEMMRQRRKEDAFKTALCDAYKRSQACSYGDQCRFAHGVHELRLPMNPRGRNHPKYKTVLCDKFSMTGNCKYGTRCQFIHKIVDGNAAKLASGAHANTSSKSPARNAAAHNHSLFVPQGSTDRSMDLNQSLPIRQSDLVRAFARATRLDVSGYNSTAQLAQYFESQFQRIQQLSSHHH
# [2] = target: T2, Tyrosine-protein phosphatase non-receptor type 22 (Homo sapiens, UniProt Q9Y2R2); type: functional;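 further: confirmatory dose-response retest of primary uHTS hits for inhibition of LYP phosphatase, measured by a fluorescence intensity read-out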
# T2 sequence (Q9Y2R2 whole entry): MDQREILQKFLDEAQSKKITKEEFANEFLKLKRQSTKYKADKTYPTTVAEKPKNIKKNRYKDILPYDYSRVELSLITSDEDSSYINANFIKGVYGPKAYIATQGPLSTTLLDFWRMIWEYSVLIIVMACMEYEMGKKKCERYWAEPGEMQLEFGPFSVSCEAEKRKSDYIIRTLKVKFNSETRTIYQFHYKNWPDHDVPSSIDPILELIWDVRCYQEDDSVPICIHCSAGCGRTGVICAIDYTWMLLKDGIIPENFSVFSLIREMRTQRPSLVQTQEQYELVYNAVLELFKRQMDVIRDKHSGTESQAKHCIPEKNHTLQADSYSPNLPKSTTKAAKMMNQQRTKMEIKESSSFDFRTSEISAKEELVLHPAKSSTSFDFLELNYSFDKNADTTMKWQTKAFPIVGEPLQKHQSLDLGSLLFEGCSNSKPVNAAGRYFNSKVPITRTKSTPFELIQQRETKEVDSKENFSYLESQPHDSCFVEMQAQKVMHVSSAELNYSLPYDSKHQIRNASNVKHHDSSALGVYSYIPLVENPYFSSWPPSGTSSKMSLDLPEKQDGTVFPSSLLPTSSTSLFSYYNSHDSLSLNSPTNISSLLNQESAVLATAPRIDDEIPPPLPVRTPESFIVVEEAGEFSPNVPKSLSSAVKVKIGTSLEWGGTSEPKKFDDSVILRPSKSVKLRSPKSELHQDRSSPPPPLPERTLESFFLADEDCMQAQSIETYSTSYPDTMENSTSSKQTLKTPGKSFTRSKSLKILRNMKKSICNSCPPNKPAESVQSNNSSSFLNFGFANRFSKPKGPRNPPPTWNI
# [3] = target: T3, Tyrosine-protein phosphatase non-receptor type 7 (Homo sapiens, UniProt P35236); type: functional
# T3 sequence (P35236 whole entry): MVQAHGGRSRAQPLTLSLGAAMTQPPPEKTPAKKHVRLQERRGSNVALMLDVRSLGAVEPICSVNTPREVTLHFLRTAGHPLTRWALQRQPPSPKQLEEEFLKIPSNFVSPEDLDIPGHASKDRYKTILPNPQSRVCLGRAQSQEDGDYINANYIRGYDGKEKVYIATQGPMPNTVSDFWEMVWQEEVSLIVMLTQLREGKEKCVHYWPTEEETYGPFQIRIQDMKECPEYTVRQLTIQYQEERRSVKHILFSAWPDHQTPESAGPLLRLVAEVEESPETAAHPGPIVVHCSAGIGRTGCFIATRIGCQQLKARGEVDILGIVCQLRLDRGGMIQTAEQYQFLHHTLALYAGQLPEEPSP
# [4] = target: T4, Long-chain-fatty-acid--AMP ligase FadD28 (Mycobacterium tuberculosis, UniProt P9WQ59); assay: Fluorescence polarization aasay to screen for inhibitors that compete for the binding of FadD28 to a bisubstrate Measured in Biochemical System Using Plate Reader - 2147-01_Inhibitor_Dose_CherryPick_Activity.; type: functional, Mycobacterium tuberculosis H37Rv
# T4 sequence (P9WQ59 whole entry): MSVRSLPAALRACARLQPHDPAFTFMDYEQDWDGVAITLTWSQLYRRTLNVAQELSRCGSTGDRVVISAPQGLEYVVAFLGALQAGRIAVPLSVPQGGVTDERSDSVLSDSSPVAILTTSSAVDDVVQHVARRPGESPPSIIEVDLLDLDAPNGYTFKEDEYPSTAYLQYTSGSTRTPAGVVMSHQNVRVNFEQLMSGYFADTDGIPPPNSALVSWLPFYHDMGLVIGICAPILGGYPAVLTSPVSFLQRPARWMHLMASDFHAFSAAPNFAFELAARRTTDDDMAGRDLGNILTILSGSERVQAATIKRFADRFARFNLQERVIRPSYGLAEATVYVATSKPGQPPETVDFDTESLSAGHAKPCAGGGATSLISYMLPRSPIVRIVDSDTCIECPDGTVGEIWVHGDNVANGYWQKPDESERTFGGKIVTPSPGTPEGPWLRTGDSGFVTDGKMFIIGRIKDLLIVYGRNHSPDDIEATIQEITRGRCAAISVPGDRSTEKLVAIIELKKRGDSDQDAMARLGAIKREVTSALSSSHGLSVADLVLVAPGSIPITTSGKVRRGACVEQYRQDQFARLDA
# [5] = tested on: BJ; assay: cells; type: functional, cell-based; details: Homo sapiens
# [6] = target: Beta Lactamase (Pseudomonas aeruginosa, UniProt Q932Y6); assay: beta-lactamase reporter inhibitor potency, dose response, artefact control for TLR9-MyD88 binding inhibitor project, BLA reporter cells, FRET fluorescence (AID 588341); type: cell-based;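 further: cell based assay in CHO-K1 cells stably expressing beta-lactamase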
# Chain of Beta Lactamase (Q932Y6 whole entry): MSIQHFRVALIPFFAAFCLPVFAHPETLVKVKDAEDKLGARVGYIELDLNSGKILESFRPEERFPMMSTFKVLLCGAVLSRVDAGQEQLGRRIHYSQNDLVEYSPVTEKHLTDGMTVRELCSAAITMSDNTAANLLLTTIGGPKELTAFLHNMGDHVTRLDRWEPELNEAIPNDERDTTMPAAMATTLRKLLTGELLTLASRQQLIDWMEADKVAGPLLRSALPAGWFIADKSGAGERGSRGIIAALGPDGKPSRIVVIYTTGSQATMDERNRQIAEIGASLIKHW
# [7] = target: T5, Caspase-6 (Homo sapiens, UniProt P55212); assay: human caspase-6 inhibitors, dose response, biochemical, VEID-R110 fluorescence, cherry-pick (AID 720632)
# T5 sequence (P55212 whole entry): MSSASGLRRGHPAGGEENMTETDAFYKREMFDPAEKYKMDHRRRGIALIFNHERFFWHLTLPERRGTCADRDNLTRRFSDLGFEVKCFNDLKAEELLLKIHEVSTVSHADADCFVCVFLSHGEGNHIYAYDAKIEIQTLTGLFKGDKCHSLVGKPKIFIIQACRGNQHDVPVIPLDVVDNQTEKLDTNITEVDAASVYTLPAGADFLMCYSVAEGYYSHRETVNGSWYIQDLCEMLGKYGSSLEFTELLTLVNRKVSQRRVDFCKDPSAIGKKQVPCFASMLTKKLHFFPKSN
# [8] = target: Matrix metalloproteinase-14 (Homo sapiens, UniProt P50281); assay: Dose Response confirmation of uHTS hits for a small molecule inhibitors of MT1-MMP activation in a fluorescence assay set 1.; type: functional
smiles,measurement,setting,value
CCN(CC)CCN1C(=O)c2cccc3cc(N)cc(c23)C1=O,EC50,[1],6.62 µM (active)
O=C(O)c1cccc(-n2cccc2/C=C2/NC(=O)N(c3ccc(Cl)cc3)C2=O)c1,IC50,[2],4.4 µM (active)
same,IC50,[3],4.89 µM (active)
same,AC50,[4],58 µM (active)
C=C1C(=O)O[C@@H]2C[C@@H](C)[C@@H]3C=CC(=O)[C@@]3(C)[C@@H](OC(=O)CC(=O)O[C@H]3[C@@H]4C(=C)C(=O)O[C@@H]4C[C@@H](C)[C@@H]4C=CC(=O)[C@]43C)[C@H]12,EC50,[5],5.4 µM (inconclusive)
same,IC50,[6],17.9 µM (inactive)
O=S(=O)(O)c1cc(Cl)cc(N=Nc2ccc(O)cc2O)c1O,AC50,[7],2.44 µM (active)
same,IC50,[8],1.41 µM (active)
